Source: ChEMBL document CHEMBL5046278, “Synthesis and Evaluation of Novel Tetrahydronaphthyridine CXCR4 Antagonists with Improved Drug-like Profiles” (J Med Chem, 2022)

Experiments:
[1] = target: T1, Alpha-2A adrenergic receptor (Homo sapiens, UniProt P08913); assay: Inhibition of alpha 2A adrenergic receptor (unknown origin)
T1 sequence (P08913 whole entry): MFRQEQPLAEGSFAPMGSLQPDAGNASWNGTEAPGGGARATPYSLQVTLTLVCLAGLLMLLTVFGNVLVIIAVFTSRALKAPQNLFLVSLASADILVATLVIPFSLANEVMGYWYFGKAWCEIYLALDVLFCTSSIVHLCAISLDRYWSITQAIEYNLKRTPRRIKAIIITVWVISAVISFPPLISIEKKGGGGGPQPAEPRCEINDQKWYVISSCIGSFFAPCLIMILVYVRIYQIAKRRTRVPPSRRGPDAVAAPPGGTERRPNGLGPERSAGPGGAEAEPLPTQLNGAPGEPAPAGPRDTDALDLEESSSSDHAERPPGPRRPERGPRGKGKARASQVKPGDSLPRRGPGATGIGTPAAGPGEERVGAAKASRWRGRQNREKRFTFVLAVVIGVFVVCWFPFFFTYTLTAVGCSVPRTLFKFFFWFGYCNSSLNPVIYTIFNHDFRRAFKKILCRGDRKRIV

Mu-type opioid receptor = Mu-type opioid receptor (Homo sapiens, UniProt P35372); assay: Inhibition of mu opioid receptor (unknown origin)
[2] = target: Kappa-type opioid receptor (Homo sapiens, UniProt P41145); assay: Inhibition of kappa opioid receptor (unknown origin)
D(2) dopamine receptor = D(2) dopamine receptor (Homo sapiens, UniProt P14416); assay: Inhibition of dopamine D2 receptor (unknown origin)
[3] = target: T2, Muscarinic acetylcholine receptor M2 (Homo sapiens, UniProt P08172); assay: Inhibition of M2 mAChR receptor (unknown origin)
T2 sequence (P08172 whole entry): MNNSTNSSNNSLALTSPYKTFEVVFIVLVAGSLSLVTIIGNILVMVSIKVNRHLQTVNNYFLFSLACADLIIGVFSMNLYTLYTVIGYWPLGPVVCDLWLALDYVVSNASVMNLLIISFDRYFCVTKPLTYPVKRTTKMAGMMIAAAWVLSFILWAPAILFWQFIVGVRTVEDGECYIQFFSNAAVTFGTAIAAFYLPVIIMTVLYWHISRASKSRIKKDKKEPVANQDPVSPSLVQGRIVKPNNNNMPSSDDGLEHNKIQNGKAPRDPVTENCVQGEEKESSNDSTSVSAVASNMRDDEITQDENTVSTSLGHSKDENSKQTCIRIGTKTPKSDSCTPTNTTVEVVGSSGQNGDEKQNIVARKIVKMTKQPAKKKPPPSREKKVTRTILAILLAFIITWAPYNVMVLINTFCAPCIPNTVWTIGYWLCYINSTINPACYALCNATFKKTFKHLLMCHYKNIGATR

[4] = target: Neuronal acetylcholine receptor subunit alpha-7 (Homo sapiens, UniProt P36544); assay: Inhibition of alpha7 nicotinic acetylcholine receptor (unknown origin)
[5] = Half life in mouse at 3 mg/kg, iv measured after 8 hrs by LC-MS/MS analysis; type: ADME, organism-based; conditions: in vivo
[6] = Drug concentration in mouse plasma at 30 mg/kg, po measured at 12 hrs by LC-MS analysis; type: ADME, organism-based
[7] = AUC(0 to 8 h) in mouse plasma at 3 mg/kg, iv measured at 24 hrs by LC-MS/MS analysis; type: ADME, organism-based; design: route intravenous, time 24 hrs, dose 3 mg/kg; conditions: in vivo
[8] = AUC(0 to 8 h)in mouse plasma at 3 mg/kg, po measured at 24 hrs by LC-MS/MS analysis; type: ADME, organism-based; design: route oral, dose 3 mg/kg, time 24 hrs; conditions: in vivo
[9] = AUC(0 to 8 h) in mouse plasma at 30 mg/kg, po measured at 24 hrs by LC-MS/MS analysis; type: ADME, organism-based; design: route oral, time 24 hrs, dose 30 mg/kg; conditions: in vivo
[10] = Oral bioavailability in mouse at 3 mg/kg measured at 24 hrs by LC-MS/MS analysis; type: ADME, organism-based; conditions: in vivo
[11] = Oral bioavailability in mouse at 30 mg/kg measured at 24 hrs by LC-MS/MS analysis; type: ADME, organism-based; conditions: in vivo
[12] = Volume of distribution in mouse at 3 mg/kg, measured at 24 hrs by LC-MS analysis; type: ADME, organism-based; conditions: in vivo
[13] = Metabolic stability in human liver microsomes assessed compound remaining measured after 10 mins in presence of NADPH; type: ADME, Microsome; conditions: read-out: Stability
[14] = Antagonist activity at human CXCR4 receptor expressed in CCRF-CEM cells assessed as inhibition of CXCL12-induced calcium release by calcium flux assay; type: cell-based
[15] = Metabolic stability in mouse liver microsomes assessed compound remaining measured after 10 mins in presence of NADPH; type: ADME, Microsome; conditions: read-out: Stability
[16] = Antagonist activity at mAChR (unknown origin) expressed in CCRF-CEM cells assessed as inhibition of calcium release by calcium flux assay; type: cell-based; conditions: Homo sapiens
[17] = Permeability of compound at pH 7.4 incubated for 4 hrs by PAMPA assay; type: ADME; conditions: read-out: permeability
[18] = Permeability of compound at pH 5.5 incubated for 4 hrs by PAMPA assay; type: ADME; conditions: read-out: permeability
Cytochrome P450 2D6 = Cytochrome P450 2D6 (Homo sapiens, UniProt P10635); assay: Inhibition of recombinant human CYP2D6 using AMMC as substrate preincubated for 30 mins followed by substrate addition measured after 45 mins by fluorescence based assay; type: ADME
[19] = Metabolic stability in rat liver microsomes assessed compound remaining measured after 10 mins in presence of NADPH; type: ADME, Microsome; conditions: read-out: Stability
[20] = Cytotoxicity against human TZM-bl cells assessed as reduction in cell viability incubated for 4 hrs by […] assay; type: toxicity, cell-based; conditions: read-out: TC50
[21] = tested on: Human immunodeficiency virus 1; assay: Antiviral activity against HIV-1 Z1800M E4.02 (R5) pseudovirus infected in human TZM-blcells assessed as reduction in viral infectivity measured after 48 hrs of postinfection by luminescence assay; type: functional, organism-based; conditions: Human immunodeficiency virus 1, Z1800M E4.02 (R5), TZM-bl
[22] = tested on: Human immunodeficiency virus 1; assay: Antiviral activity against HIV-1 NL4-3(X4) pseudovirus infected in human TZM-bl cells assessed as reduction in viral infectivity measured after 48 hrs of postinfection by luminescence assay; type: functional, organism-based; conditions: Human immunodeficiency virus 1, NL4-3(X4)
[23] = target: T3, Alpha-2C adrenergic receptor (Homo sapiens, UniProt P18825); assay: Inhibition of alpha 2C adrenergic receptor (unknown origin)
T3 sequence (P18825 whole entry): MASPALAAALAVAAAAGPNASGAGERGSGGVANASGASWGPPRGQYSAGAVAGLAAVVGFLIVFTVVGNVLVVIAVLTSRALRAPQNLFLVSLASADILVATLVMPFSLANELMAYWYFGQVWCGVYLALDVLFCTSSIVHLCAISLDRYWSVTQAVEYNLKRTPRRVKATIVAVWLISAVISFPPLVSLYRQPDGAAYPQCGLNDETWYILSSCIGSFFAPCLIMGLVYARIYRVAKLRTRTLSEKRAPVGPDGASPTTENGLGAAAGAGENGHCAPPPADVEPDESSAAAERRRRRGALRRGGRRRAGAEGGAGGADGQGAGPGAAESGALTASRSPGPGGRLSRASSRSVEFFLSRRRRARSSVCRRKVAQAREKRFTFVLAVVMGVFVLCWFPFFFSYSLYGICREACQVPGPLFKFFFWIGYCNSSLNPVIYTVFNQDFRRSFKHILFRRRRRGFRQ

[24] = target: Voltage-gated inwardly rectifying potassium channel KCNH2 (Homo sapiens, UniProt Q12809); assay: Inhibition of human ERG by [3H]]Astemizole binding assay; type: toxicity
Chain of Voltage-gated inwardly rectifying potassium channel KCNH2 (Q12809 whole entry): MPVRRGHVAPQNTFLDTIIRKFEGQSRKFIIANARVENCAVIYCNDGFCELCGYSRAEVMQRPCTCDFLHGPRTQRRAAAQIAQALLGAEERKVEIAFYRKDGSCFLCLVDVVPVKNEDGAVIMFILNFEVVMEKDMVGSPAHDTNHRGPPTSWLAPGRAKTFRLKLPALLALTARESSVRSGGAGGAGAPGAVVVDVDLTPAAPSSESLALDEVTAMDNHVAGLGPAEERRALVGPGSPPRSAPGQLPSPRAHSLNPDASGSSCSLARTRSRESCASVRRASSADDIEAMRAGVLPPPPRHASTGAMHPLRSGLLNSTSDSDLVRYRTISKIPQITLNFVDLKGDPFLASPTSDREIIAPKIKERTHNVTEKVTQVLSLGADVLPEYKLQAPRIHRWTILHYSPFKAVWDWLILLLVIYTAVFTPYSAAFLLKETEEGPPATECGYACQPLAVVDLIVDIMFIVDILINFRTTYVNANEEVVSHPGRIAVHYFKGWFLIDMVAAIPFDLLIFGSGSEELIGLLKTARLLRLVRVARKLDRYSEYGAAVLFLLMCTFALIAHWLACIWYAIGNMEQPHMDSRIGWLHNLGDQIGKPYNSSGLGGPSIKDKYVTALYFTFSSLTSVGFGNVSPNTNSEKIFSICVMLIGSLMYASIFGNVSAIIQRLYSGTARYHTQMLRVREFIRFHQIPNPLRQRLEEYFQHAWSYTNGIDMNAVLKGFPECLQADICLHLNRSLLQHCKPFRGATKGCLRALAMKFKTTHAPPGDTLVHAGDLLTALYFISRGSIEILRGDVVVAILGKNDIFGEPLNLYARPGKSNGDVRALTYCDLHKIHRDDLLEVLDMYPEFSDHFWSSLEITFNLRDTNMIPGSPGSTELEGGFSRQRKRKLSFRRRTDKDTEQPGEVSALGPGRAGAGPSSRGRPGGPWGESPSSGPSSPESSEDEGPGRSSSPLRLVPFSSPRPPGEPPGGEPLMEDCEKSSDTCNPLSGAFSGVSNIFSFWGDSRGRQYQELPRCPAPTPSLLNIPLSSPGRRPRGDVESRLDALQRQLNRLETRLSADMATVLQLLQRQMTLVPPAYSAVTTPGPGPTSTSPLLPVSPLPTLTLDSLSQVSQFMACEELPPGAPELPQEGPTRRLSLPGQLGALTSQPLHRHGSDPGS

Chain of Kappa-type opioid receptor (P41145 whole entry): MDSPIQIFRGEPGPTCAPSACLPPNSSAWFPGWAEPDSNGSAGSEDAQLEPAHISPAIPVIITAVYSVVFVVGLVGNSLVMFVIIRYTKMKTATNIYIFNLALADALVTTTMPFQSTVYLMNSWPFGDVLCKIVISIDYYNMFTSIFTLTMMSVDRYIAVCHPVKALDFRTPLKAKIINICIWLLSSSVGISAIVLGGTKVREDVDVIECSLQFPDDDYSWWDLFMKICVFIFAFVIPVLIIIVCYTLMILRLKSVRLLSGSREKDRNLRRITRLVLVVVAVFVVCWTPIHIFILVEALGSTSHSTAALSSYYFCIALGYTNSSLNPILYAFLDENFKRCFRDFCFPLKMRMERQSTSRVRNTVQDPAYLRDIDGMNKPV
Chain of Mu-type opioid receptor (P35372 whole entry): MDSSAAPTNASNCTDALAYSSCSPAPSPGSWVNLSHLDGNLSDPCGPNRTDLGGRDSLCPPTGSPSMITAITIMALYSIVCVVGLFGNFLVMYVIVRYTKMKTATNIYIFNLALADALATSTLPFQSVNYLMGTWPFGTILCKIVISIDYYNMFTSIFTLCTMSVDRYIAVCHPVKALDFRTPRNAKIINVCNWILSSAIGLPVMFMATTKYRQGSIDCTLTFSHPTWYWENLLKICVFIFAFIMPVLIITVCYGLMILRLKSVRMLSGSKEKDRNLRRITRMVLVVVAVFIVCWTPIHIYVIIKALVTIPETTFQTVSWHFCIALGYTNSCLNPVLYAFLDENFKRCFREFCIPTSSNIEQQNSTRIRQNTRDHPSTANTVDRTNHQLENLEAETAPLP
Chain of Neuronal acetylcholine receptor subunit alpha-7 (P36544 whole entry): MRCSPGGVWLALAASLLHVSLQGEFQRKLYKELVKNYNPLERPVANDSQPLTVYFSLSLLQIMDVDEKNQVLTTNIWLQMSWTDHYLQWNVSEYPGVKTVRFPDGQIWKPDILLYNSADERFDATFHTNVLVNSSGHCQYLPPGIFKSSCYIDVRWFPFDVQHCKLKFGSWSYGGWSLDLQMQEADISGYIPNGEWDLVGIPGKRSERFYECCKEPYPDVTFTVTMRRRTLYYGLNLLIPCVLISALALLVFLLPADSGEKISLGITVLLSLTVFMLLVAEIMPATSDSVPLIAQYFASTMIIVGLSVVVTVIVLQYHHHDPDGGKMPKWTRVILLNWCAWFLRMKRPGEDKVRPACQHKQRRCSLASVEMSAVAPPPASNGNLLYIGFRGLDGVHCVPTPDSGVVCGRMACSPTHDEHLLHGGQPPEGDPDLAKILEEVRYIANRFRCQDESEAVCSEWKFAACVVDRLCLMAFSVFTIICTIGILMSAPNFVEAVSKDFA
Chain of Cytochrome P450 2D6 (P10635 whole entry): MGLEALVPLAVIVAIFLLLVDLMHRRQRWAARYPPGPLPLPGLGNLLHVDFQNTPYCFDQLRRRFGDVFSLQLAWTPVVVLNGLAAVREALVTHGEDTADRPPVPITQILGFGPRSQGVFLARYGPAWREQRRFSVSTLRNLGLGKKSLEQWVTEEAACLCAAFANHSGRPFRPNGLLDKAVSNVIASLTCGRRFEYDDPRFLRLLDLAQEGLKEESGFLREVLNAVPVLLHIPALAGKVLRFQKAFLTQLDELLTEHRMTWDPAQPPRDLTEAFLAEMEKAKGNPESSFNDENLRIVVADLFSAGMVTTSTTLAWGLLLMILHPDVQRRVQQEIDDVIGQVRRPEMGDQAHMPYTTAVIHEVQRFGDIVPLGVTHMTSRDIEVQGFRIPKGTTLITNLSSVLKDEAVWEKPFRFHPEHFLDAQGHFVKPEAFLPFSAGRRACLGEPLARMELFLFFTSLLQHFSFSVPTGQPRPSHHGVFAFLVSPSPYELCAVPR
Chain of D(2) dopamine receptor (P14416 whole entry): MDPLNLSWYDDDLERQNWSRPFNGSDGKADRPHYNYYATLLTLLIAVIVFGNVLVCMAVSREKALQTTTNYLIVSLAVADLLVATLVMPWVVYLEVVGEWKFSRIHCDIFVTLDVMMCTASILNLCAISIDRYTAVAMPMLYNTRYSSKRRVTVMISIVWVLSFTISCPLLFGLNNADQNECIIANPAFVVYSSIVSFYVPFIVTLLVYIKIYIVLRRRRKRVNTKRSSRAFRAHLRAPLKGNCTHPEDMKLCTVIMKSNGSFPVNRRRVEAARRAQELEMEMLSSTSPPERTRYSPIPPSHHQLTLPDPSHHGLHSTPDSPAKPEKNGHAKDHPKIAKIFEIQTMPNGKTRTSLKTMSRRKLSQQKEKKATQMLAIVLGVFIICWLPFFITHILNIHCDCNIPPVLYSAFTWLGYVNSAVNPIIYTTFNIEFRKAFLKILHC

IC50 [1] | IC50 (Mu-type opioid receptor) | IC50 [2] | IC50 (D(2) dopamine receptor) | IC50 [3] | IC50 [4] | remaining at 10 min [13] | IC50 [14] | remaining at 10 min [15] | IC50 [16] | Papp at 4 h [17] | Papp at 4 h [18] | IC50 (Cytochrome P450 2D6) | remaining at 10 min [19] | IC50 [21] | IC50 [22] | IC50 [23] | Structure (SMILES) | CC50 at 4 h [20] | IC50 [24] | also measured
> 30 µM | 12 µM | > 30 µM | 4.1 µM | 7.5 µM | > 30 µM | – | – | – | – | – | – | – | – | – | – | – | NCCCCN(Cc1nc2ccccc2[nH]1)[C@H]1CCCc2cccnc21 [MAVORIXAFOR] | – | – | half-life [5]: 3.09 h; concentration at 12 h [6]: 2.2 ng/mL; AUC [7]: 415 h/ng/mL; AUC [8]: 35.1 h/ng/mL; AUC [9]: 101 h/ng/mL; bioavailability [10]: 2.54%; bioavailability [11]: 2.42%; Vd [12]: 32.2 L/kg
0.62 µM | > 30 µM | > 30 µM | > 30 µM | > 30 µM | 11 µM | 100% | 0.27 µM | 20% | > 33 µM | 83 ×10⁻⁶ cm/s | 1.2 ×10⁻⁶ cm/s | > 20 µM | 39% | > 10 µM | > 0.03 µM | 20 µM | c1cnc2c(c1)CN[C@@H](CN(CCCCN1CCOCC1)[C@H]1CCCc3cccnc31)C2 | > 10 µM | 11 µM | –
24 µM | 21 µM | 10.1 µM | > 30 µM | > 17 µM | > 30 µM | 97% | 0.16 µM | 41% | > 33 µM | 30 ×10⁻⁶ cm/s | 0.7 ×10⁻⁶ cm/s | > 20 µM | 27% | > 10 µM | 0.02 µM | 8.8 µM | c1cnc2c(c1)CN[C@@H](CN(CCCCNC1COC1)[C@H]1CCCc3cccnc31)C2 | > 10 µM | 11 µM | –
28 µM | > 30 µM | 8.9 µM | > 30 µM | > 30 µM | > 30 µM | 100% | 0.11 µM | 51% | > 33 µM | 49 ×10⁻⁶ cm/s | 1.5 ×10⁻⁶ cm/s | > 20 µM | 64% | > 10 µM | 0.006 µM | 8.4 µM | CN(CCCCN(C[C@H]1Cc2ncccc2CN1)[C@H]1CCCc2cccnc21)C1CCOCC1 | > 10 µM | > 50 µM | –
